Earlier results in article PMC9217999 (Targeted Oncology, 2022).

Columns and labels:
Conditions in all cases: cited from earlier work
NF1 and inoperable PN = tested on: NF1 and inoperable PN
recurrent/refractory LGG = tested on: recurrent/refractory LGG
NF1-associated PN = tested on: NF1-associated PN

SMILES | Confirmed PR rate (NF1 and inoperable PN) [%] | PR rate (NF1 and inoperable PN) [%] | Stable disease (NF1 and inoperable PN) [%] | PR (bidimensional measurements on T2/FLAIR) (recurrent/refractory LGG; 5/25, four with BRAF aberrations) [%] | 2-year PFS (recurrent/refractory LGG) [%] | Responses ongoing (NF1-associated PN; 10/12 responses) [%] | Patients with PR (NF1-associated PN; 12/26 patients, preliminary data) [%]
Cn1cnc2c(F)c(Nc3ccc(Br)cc3Cl)c(C(=O)NOCCO)cc21 [selumetinib] | 68 | 74 | 12 | 20 | 69 |  | 
CC(=O)Nc1cccc(-n2c(=O)n(C3CC3)c(=O)c3c(Nc4ccc(I)cc4F)n(C)c(=O)c(C)c32)c1 [trametinib] |  |  |  |  |  | 83 | 46
